Test results taken from patent publication US20070117743A1, “New antitumoral compounds” (priority 2003, published 2007).
Where a SMILES comes first, the peptide text is derived from it. Bridges are numbered along the chain shown (N, C = ends). [ ]: non-standard residue; d: D form. The star is where a group is joined. Hexanoyl(4S-Me) = CC[C@H](C)CCC(=O)*; d(aIle) = CC[C@H](C)[C@@H](N)C(=O)O; d(aThr) = C[C@@H](O)[C@@H](N)C(=O)O; Tic = O=C(O)[C@@H]1Cc2ccccc2CN1; Orn = NCCC[C@H](N)C(=O)O; Dhb = C/C=C(\N)C(=O)O

Legend:
Format in all cases: cell-based, human
K-562 = experiment: SRB colorimetric assay of cell growth and viability, K-562; settings: 48 hours exposure, SRB; for CC50: read-out: LC50 K-562
HT-29 = experiment: SRB colorimetric assay of cell growth and viability, HT-29; settings: 48 hours exposure, SRB; for GI50: read-out: GI50 HT-29; for CC50: read-out: LC50 HT-29
PANC-1 = experiment: SRB colorimetric assay of cell growth and viability, PANC-1; settings: 48 hours exposure, SRB; for CC50: read-out: LC50 PANC-1
HeLa-APL = experiment: SRB colorimetric assay of cell growth and viability, HeLa-APL; settings: 48 hours exposure, SRB; for CC50: read-out: LC50 HELA-APL
A-549 = experiment: SRB colorimetric assay of cell growth and viability, A-549; settings: 48 hours exposure, SRB; for GI50: read-out: GI50 A-549; for CC50: read-out: LC50 A-549
SK-BR-3 = experiment: SRB colorimetric assay of cell growth and viability, SK-BR-3; settings: 48 hours exposure, SRB
Excerpt: The finality of this assay is to interrupt the growth of a “in vitro” tumor cell culture by means a continued exhibition of the cells to the sample to be testing.
This form of the assay employs 96 well cell culture microplates of 9 mm diameter (Faircloth, 1988; Mosmann, 1983). Most of the cell lines are obtained from American Type Culture Collection (ATCC) derived from different human cancer types.
Cells are maintained in RPMI 1640 10% FBS, supplemented with 0.1 g/l penicillin and 0.1 g/l streptomycin sulfate and then incubated at 37° C., 5% CO2 and 98% humidity. For the experiments, cells were harvested from subconfluent cultures using trypsin and resuspended in fresh medium before plating.
Cells are seeded in 96 well microtiter plates, at 5×10^3 cells per well in aliquots of 195 μL medium, and they are allowed to attach to the plate surface by growing in drug free medium for 18 hours. Afterward, samples are added in aliquots of 5 μL in a ranging from 10 to 10^−8 μg/mL, dissolved in DMSO:EtOH:PBS (0.5:0.5:99). After 48 hours exposure, the antitumor effect are measured by the SRB methodology: cells are fixed by adding 50 μL of cold 50% (wt/vol) trichloroacetic acid (TCA) and incubating for 60 minutes at 4° C. Plates are washed with deionized water and dried. One hundred μL of SRB solution (0.4% wt/vol in 1% acetic acid) is added to each microtiter well and incubated for 10 minutes at room temperature. Unbound SRB is removed by washing with 1% acetic acid. Plates are air dried and bound stain is solubilized with Tris buffer. Optical densities are read on a automated spectrophotometric plate reader at a single wavelength of 490 nm.
The values for mean+/− SD of data from triplicate wells are calculated. Some parameters for cellular responses can be calculated: GI=growth inhibition, TGI=total growth inhibition (cytostatic effect) and LC=cell killing (cytotoxic effect).

LoVo = experiment: SRB colorimetric assay of cell growth and viability, LoVo; settings: 48 hours exposure, SRB; for CC50: read-out: LC50 LOVO
SK-MEL-28 = experiment: SRB colorimetric assay of cell growth and viability, SK-MEL-28; settings: 48 hours exposure, SRB; for CC50: read-out: LC50 MEL-28
IGROV-1 = experiment: SRB colorimetric assay of cell growth and viability, IGROV-1; settings: 48 hours exposure, SRB
IGROV-ET = experiment: SRB colorimetric assay of cell growth and viability, IGROV-ET; settings: 48 hours exposure, SRB; for CC50: read-out: LC50 IGROV-ET
DU-145 = experiment: SRB colorimetric assay of cell growth and viability, DU-145; settings: 48 hours exposure, SRB
LoVo-Dox = experiment: SRB colorimetric assay of cell growth and viability, LoVo-Dox; settings: 48 hours exposure, SRB; for CC50: read-out: LC50 LOVO-DOX
In short: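 Absorbance at 490 nm of Tris-solubilized sulforhodamine B gives the read-out after cells are fixed with cold 50% TCA for 60 min at 4° C. Compound exposure lasts 48 hours over 10 to 10^−8 μg/mL. Growth inhibition, total growth inhibition and lethal concentration are calculated from triplicate wells.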

HeLa = experiment: SRB colorimetric assay of cell growth and viability, HeLa; settings: 48 hours exposure, SRB; for CC50: read-out: LC50 HELA

SMILES	GI50 (K-562) [nM]	TGI K-562 (K-562) [Molar]	CC50 (K-562) [nM]	TGI HT-29 (HT-29) [Molar]	GI50 (HT-29) [nM]	CC50 (HT-29) [nM]	GI50 (PANC-1) [nM]	TGI PANC-1 (PANC-1) [Molar]	CC50 (PANC-1) [nM]	GI50 (HeLa-APL) [nM]	TGI HELA-APL (HeLa-APL) [Molar]	CC50 (HeLa-APL) [nM]	TGI A-549 (A-549) [Molar]	GI50 (A-549) [nM]	CC50 (A-549) [nM]	GI50 (SK-BR-3) [nM]	LC50 (SK-BR-3) [nM]	TGI SK-BR-3 (SK-BR-3) [Molar]	GI50 (LoVo) [nM]	TGI LOVO (LoVo) [Molar]	further results
C/C=C1\NC(=O)[C@@H]2Cc3ccccc3CN2C(=O)[C@@H](C(C)C)NC(=O)[C@@H]([C@@H](C)CC)NC(=O)[C@H](NC(=O)[C@H](NC(=O)[C@H](CCCN)NC(=O)[C@H]2CCCN2C(=O)[C@H](NC(=O)[C@@H](NC(=O)[C@@H](NC(=O)[C@H](NC(=O)CC[C@@H](C)CC)C(C)C)[C@@H](C)O)C(C)C)C(C)C)[C@@H](C)CC)[C@@H](C)OC(=O)[C@H](C(C)C)NC1=O [Compound 77, [Tic^3, (4S)-MeHex^14]-KF] ({Hexanoyl(4S-Me)}-[dV]TV[dV][dP][Orn][d(aIle)][d(aThr)][d(aIle)][dV][Tic][Dhb]V; ester 8-C)	17	3.99E−06	6710	2.21E−06	1230	3970	6740	6.74E−06	6740	1570	2.53E−06	4070	2.58E−06	1520	4400	873	5510	2.19E−06	913	1.76E−06	CC50 (LoVo): 3400 nM; GI50 (SK-MEL-28): 1580 nM; TGI MEL-28 (SK-MEL-28): 3.41E−06 Molar; CC50 (SK-MEL-28): 6710 nM; GI50 (IGROV-1): 1610 nM; LC50 (concentration causing 50% net cell killing) (IGROV-1): 4260 nM; TGI IGROV (IGROV-1): 2.62E−06 Molar; GI50 (IGROV-ET): 1420 nM; TGI IGROV-ET (IGROV-ET): 2.34E−06 Molar; CC50 (IGROV-ET): 3860 nM; GI50 (DU-145): 3630 nM; LC50 (concentration causing 50% net cell kill) (DU-145): 6740 nM; TGI DU-145 (DU-145): 6.71E−06 Molar; GI50 (LoVo-Dox): 271 nM; TGI LOVO-DOX (LoVo-Dox): 8.32E−07 Molar; CC50 (LoVo-Dox): 2140 nM; GI50 (HeLa): 1430 nM; TGI HELA (HeLa): 2.29E−06 Molar; CC50 (HeLa): 3660 nM
C/C=C1\NC(=O)[C@H](Cc2ccc(O)cc2)NC(=O)[C@@H](C(C)C)NC(=O)[C@@H]([C@@H](C)CC)NC(=O)[C@H](NC(=O)[C@H](NC(=O)[C@H](CCCN)NC(=O)[C@H]2CCCN2C(=O)[C@H](NC(=O)[C@@H](NC(=O)[C@@H](NC(=O)[C@H](NC(=O)CC[C@@H](C)CC)C(C)C)[C@@H](C)O)C(C)C)C(C)C)[C@@H](C)CC)[C@@H](C)OC(=O)[C@H](C(C)C)NC1=O [Compound 78, [Tyr^3, (4S)-MeHex^14]-KF] ({Hexanoyl(4S-Me)}-[dV]TV[dV][dP][Orn][d(aIle)][d(aThr)][d(aIle)][dV]Y[Dhb]V; ester 8-C)	1650	3.78E−06	6690	1.99E−06	1080	3700	2560	6.69E−06	6690	964	1.81E−06	3420	2.23E−06	1270	3920	266	2580	1.02E−06	390	1.16E−06	CC50 (LoVo): 2710 nM; GI50 (SK-MEL-28): 1120 nM; TGI MEL-28 (SK-MEL-28): 2.01E−06 Molar; CC50 (SK-MEL-28): 3590 nM; GI50 (IGROV-1): 877 nM; LC50 (concentration causing 50% net cell killing) (IGROV-1): 3330 nM; TGI IGROV (IGROV-1): 1.71E−06 Molar; GI50 (IGROV-ET): 930 nM; TGI IGROV-ET (IGROV-ET): 1.79E−06 Molar; CC50 (IGROV-ET): 3420 nM; GI50 (DU-145): 1270 nM; LC50 (concentration causing 50% net cell kill) (DU-145): 3760 nM; TGI DU-145 (DU-145): 2.18E−06 Molar; GI50 (LoVo-Dox): 135 nM; TGI LOVO-DOX (LoVo-Dox): 2.89E−07 Molar; CC50 (LoVo-Dox): 621 nM; GI50 (HeLa): 1160 nM; TGI HELA (HeLa): 1.97E−06 Molar; CC50 (HeLa): 3360 nM
